Results from patent US20260083722A1, “BIFUNCTIONAL DEGRADERS COMPRISING ELECTROPHILIC PROTACS THAT ENGAGE DCAF1 AND PHARMACEUTICAL COMPOSITIONS COMPRISING THE SAME” (THE SCRIPPS RESEARCH INSTITUTE, priority 2022, published 2026).

Target: T1, HA-FKBP12 (Homo sapiens, UniProt P62942)
T1 construct: expressed in transfected cells; host or cells: HEK293T
Assay: HA-FKBP12 abundance by Western blotting in transfected HEK293T cells
Assay type: cell-based
Conditions: for time after treatment until evidence of HA-FKBP12 degradation: 2 μM each, FLAG-DCAF1-transfected cells; for lowest concentration with evidence of FKBP12 degradation: HEK293T co-expressing HA-FKBP12 and FLAG-DCAF1; for degradation of FKBP12: cells expressing DCAF1-C1113A mutant; for hook effect in HA-FKBP12 degradation: emerging at 5 μM
Source text: (A) Left, western blots showing concentration-dependent effects of YT47R (upper) and YT41R (lower) on FKBP12 abundance in HEK293T cells expressing HA-FBKP12 with or without co-expression of FLAG-DCAF1. Right, quantification of HA-FKBP12 abundance in the indicated experimental groups. (B) Left, western blots showing effects of YT47R versus YT47S (upper) and YT41R versus YT41S (lower) on FKBP12 abundance in HEK293T cells co-expressing HA-FBKP12 and FLAG-DCAF1. Right, quantification of HA-FKBP12 abundance in the indicated experimental groups. (C) Western blots showing effects of YT47R (left blots) and YT41R (right blots) on FKBP12 abundance in HEK293T cells co-expressing HA-FBKP12 and either FLAG-DCAF1-WT or FLAG-DCAF1-C1113A mutant. Quantification of HA-FKBP12 abundance in the indicated experimental groups is shown in the adjacent bar graphs. For (A-C), FKBP12 abundance was determined at 24 h post-treatment with compounds, and data are mean values±SEM for three independent experiments. Statistical significance was calculated with unpaired two-tailed Student's t-tests comparing YT41R/YT47R- and DMSO-treated cells. ***P<0.001, ****P<0.0001.
(A) Left, western blots showing effects of proteasome (MG132) and Neddylation (MLN4924) inhibitors (1 h pre-treatment) on YT47R- and YT41R-dependent degradation of FKBP12 in HEK293T cells co-expressing HA-FBKP12 and FLAG-DCAF1. FKBP12 abundance was determined at 24 h post-treatment with YT47R or YT41R. Right, quantification of HA-FKBP12 abundance in the indicated experimental groups. (B) Left, western blots showing effects of the FKBP12 ligand SLF (20 μM) or DCAF1 ligand MY-11B (1 h pre-treatment with 20 μM SLF or 5 μM MY-11B) on YT47R- and YT41R-dependent degradation of FKBP12 in HEK293T cells co-expressing HA-FBKP12 and FLAG-DCAF1. FKBP12 abundance was determined at 24 h post-treatment with YT47R or YT41R. Right, quantification of HA-FKBP12 abundance in the indicated experimental groups. (C) Left, western blots showing effects of MY-11A or MY-11B (5 μM, 1 h pre-treatment) on YT47R- and YT41R-dependent degradation of FKBP12 in HEK293T cells co-expressing HA-FBKP12 and FLAG-DCAF1. FKBP12 abundance was determined at 24 h post-treatment with YT47R or YT41R. Right, quantification of HA-FKBP12 abundance in the indicated experimental groups. For (A-C), data are mean values±SEM for three-five independent experiments. Statistical significance was calculated with unpaired two-tailed Student's t-tests comparing YT41R/YT47R- and DMSO-treated cells. ****P<0.0001.
Figure S3. Concentration-dependent degradation of FKBP12 by DCAF1-directed electrophilic PROTACs. Top, western blots showing concentration-dependent effects of YT47R and YT41R on FKBP12 abundance in HEK293T cells co-expressing HA-FBKP12 and FLAG-DCAF1. Data are mean values±SEM for four independent experiments. Statistical significance was calculated with unpaired two-tailed Student's t-tests comparing YT41R/YT47R- and DMSO-treated cells. *P<0.1, **P<0.01, ***P<0.001, ****P<0.0001.
Figure S4. Time-dependent degradation of FKBP12 by DCAF1-directed electrophilic PROTACs. Top, western blots showing time-dependent effects of YT47R and YT41R (2 μM each) on FKBP12 abundance in HEK293T cells co-expressing HA-FBKP12 and FLAG-DCAF1. Data are mean values±SEM for four independent experiments. Statistical significance was calculated with unpaired two-tailed Student's t-tests comparing YT41R/YT47R- and DMSO-treated cells. ****P<0.0001.
We next treated HEK293T cells co-transfected with FLAG epitope-tagged full length DCAF1 (a.a.'s 1-1507) and HA (hemagglutinin) epitope-tagged FKBP12 with a concentration range of YT41R or YT47R and, after 24 h, measured HA-FKBP12 abundance by Western blotting.

[1] = HEK293T cells transfected only with HA-FKBP12, 24 h
[2] = HEK293T co-transfected with FLAG-DCAF1 and HA-FKBP12, 24 h

T1 sequence (P62942 whole entry): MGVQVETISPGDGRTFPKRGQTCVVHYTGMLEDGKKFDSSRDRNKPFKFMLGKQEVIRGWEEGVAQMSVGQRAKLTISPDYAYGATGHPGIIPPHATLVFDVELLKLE

Compound	time after treatment until evidence of HA-FKBP12 degradation	degradation of HA-FKBP12 [1]	lowest concentration with evidence of FKBP12 degradation	degradation of HA-FKBP12 [2]	degradation of FKBP12	hook effect in HA-FKBP12 degradation
C=CC(=O)C1C[C@H](c2ccc(C(=O)NCCOCCOCCNC(=O)COc3cccc([C@@H](CCc4ccc(OC)c(OC)c4)OC(=O)[C@@H]4CCCCN4C(=O)C(=O)C(C)(C)CC)c3)cc2)[C@@H]1C(=O)Nc1cccc2cccnc12 (stereo partly drawn) [YT41R]	~24 h	not	0.25 µM	Robust concentration-dependent degradation	did not promote the degradation	possible modest hook effect
C=CC(=O)N1C[C@H](c2ccc(C(=O)NCCOCCOCCOCCNC(=O)COc3cccc([C@@H](CCc4ccc(OC)c(OC)c4)OC(=O)[C@@H]4CCCCN4C(=O)C(=O)C(C)(C)CC)c3)cc2)[C@@H]1C(=O)Nc1cccc2cccnc12 [YT47R]	~24 h	not	0.25 µM	Robust concentration-dependent degradation	did not promote the degradation	possible modest hook effect
